Results: PubChem BioAssay AID1259407 (Chemical Carcinogenesis Research Information System (CCRIS), 2018)
The source made the active and inactive calls. How the calls were made is not given here.

Tested on: CCRIS mutagenicity, Ames/micronucleus/aberration tests
Assay: CCRIS mutagenicity studies
[1] = Test System: AMES SALMONELLA TYPHIMURIUM, Strain/Indicator: TA98(1,8-DNP6), Metabolic Activation: NONE, Method: PREINCUBATION
[2] = Test System: AMES SALMONELLA TYPHIMURIUM, Strain/Indicator: TA98(NR), Metabolic Activation: NONE, Method: PREINCUBATION
[3] = Test System: AMES SALMONELLA TYPHIMURIUM, Strain/Indicator: TA98, Metabolic Activation: NONE, Method: PREINCUBATION
[4] = Test System: AMES SALMONELLA TYPHIMURIUM, Strain/Indicator: TA98, Metabolic Activation: NONE, Method: STANDARD PLATE
[5] = Test System: AMES SALMONELLA TYPHIMURIUM, Strain/Indicator: TA98, Metabolic Activation: RAT, LIVER, S-9, AROCLOR 1254, Method: STANDARD PLATE
[6] = Test System: AMES SALMONELLA TYPHIMURIUM, Strain/Indicator: TA100, Metabolic Activation: NONE, Method: STANDARD PLATE
[7] = Test System: AMES SALMONELLA TYPHIMURIUM, Strain/Indicator: TA100, Metabolic Activation: RAT, LIVER, S-9, AROCLOR 1254, Method: STANDARD PLATE
[8] = Test System: AMES SALMONELLA TYPHIMURIUM, Strain/Indicator: TA1535, Metabolic Activation: NONE, Method: STANDARD PLATE
[9] = Test System: AMES SALMONELLA TYPHIMURIUM, Strain/Indicator: TA1535, Metabolic Activation: RAT, LIVER, S-9, AROCLOR 1254, Method: STANDARD PLATE
[10] = Test System: AMES SALMONELLA TYPHIMURIUM, Strain/Indicator: TA1537, Metabolic Activation: NONE, Method: STANDARD PLATE
[11] = Test System: AMES SALMONELLA TYPHIMURIUM, Strain/Indicator: TA1538, Metabolic Activation: NONE, Method: STANDARD PLATE
[12] = Test System: AMES SALMONELLA TYPHIMURIUM, Strain/Indicator: TA1538, Metabolic Activation: RAT, LIVER, S-9, AROCLOR 1254, Method: STANDARD PLATE

O=c1oc2ccc([N+](=O)[O-])cc2c2ccccc12
mutagenic call (Test System: AMES SALMONELLA TYPHIMURIUM, Strain/Indicator: TA98(1,8-DNP6), Metabolic Activation: NONE, Method: MICROSUSPENSION): active; positive
mutagenic call [1]: active; positive
mutagenic call (Test System: AMES SALMONELLA TYPHIMURIUM, Strain/Indicator: TA98(1,8-DNP6), Metabolic Activation: NONE, Method: STANDARD PLATE): active; positive
mutagenic call (Test System: AMES SALMONELLA TYPHIMURIUM, Strain/Indicator: TA98(NR), Metabolic Activation: NONE, Method: MICROSUSPENSION): active; positive
mutagenic call [2]: inactive; negative
mutagenic call (Test System: AMES SALMONELLA TYPHIMURIUM, Strain/Indicator: TA98(NR), Metabolic Activation: NONE, Method: STANDARD PLATE): active; positive
mutagenic call (Test System: AMES SALMONELLA TYPHIMURIUM, Strain/Indicator: TA98(NR), Metabolic Activation: RAT LIVER S-9 (15%), Method: PREINCUBATION): active; positive
mutagenic call (Test System: AMES SALMONELLA TYPHIMURIUM, Strain/Indicator: TA98(NR), Metabolic Activation: RAT LIVER S-9, 3-METHYLCHOLANTHRENE (15%), Method: PREINCUBATION): active; positive
mutagenic call (Test System: AMES SALMONELLA TYPHIMURIUM, Strain/Indicator: TA98(NR), Metabolic Activation: RAT LIVER S-9, BETA-NAPHTHAFLAVONE (15%), Method: PREINCUBATION): active; positive
mutagenic call (Test System: AMES SALMONELLA TYPHIMURIUM, Strain/Indicator: TA98(NR), Metabolic Activation: RAT LIVER S-9, PCB (10%), Method: PREINCUBATION): active; positive
mutagenic call (Test System: AMES SALMONELLA TYPHIMURIUM, Strain/Indicator: TA98(NR), Metabolic Activation: RAT LIVER S-9, PHENOBARBITAL (15%), Method: PREINCUBATION): active; positive
mutagenic call (Test System: AMES SALMONELLA TYPHIMURIUM, Strain/Indicator: TA98(NR), Metabolic Activation: RAT, LIVER, S-9, AROCLOR 1254, Method: STANDARD PLATE): active; positive
mutagenic call (Test System: AMES SALMONELLA TYPHIMURIUM, Strain/Indicator: TA98, Metabolic Activation: NONE, Method: MICROSUSPENSION): active; positive
mutagenic call [3]: active; positive
mutagenic call [4]: active; positive
mutagenic call (Test System: AMES SALMONELLA TYPHIMURIUM, Strain/Indicator: TA98, Metabolic Activation: RAT, LIVER, S-9, AROCLOR 1254, Method: MICROSUSPENSION): active; positive
mutagenic call [5]: active; positive
mutagenic call (Test System: AMES SALMONELLA TYPHIMURIUM, Strain/Indicator: TA100, Metabolic Activation: NONE, Method: MICROSUSPENSION): active; positive
mutagenic call (Test System: AMES SALMONELLA TYPHIMURIUM, Strain/Indicator: TA100, Metabolic Activation: NONE, Method: PREINCUBATION): active; positive
mutagenic call [6]: active; positive
mutagenic call (Test System: AMES SALMONELLA TYPHIMURIUM, Strain/Indicator: TA100, Metabolic Activation: RAT LIVER S-9, 3-METHYLCHOLANTHRENE (15%), Method: PREINCUBATION): active; positive
mutagenic call (Test System: AMES SALMONELLA TYPHIMURIUM, Strain/Indicator: TA100, Metabolic Activation: RAT, LIVER, S-9, AROCLOR 1254, Method: MICROSUSPENSION): active; positive
mutagenic call [7]: active; positive
mutagenic call [8]: active; positive
mutagenic call [9]: active; positive
mutagenic call [10]: active; positive
mutagenic call (Test System: AMES SALMONELLA TYPHIMURIUM, Strain/Indicator: TA1537, Metabolic Activation: RAT, LIVER, S-9, AROCLOR 1254, Method: STANDARD PLATE): active; positive
mutagenic call [11]: active; positive
mutagenic call [12]: active; positive
mutagenic call (Test System: AMES SALMONELLA TYPHIMURIUM, Strain/Indicator: TA7001, Metabolic Activation: NONE, Method: PREINCUBATION): inactive; negative
mutagenic call (Test System: AMES SALMONELLA TYPHIMURIUM, Strain/Indicator: TA7001, Metabolic Activation: RAT LIVER S-9, 3-METHYLCHOLANTHRENE (15%), Method: PREINCUBATION): inactive; negative
mutagenic call (Test System: AMES SALMONELLA TYPHIMURIUM, Strain/Indicator: TA7002, Metabolic Activation: RAT LIVER S-9, 3-METHYLCHOLANTHRENE (15%), Method: PREINCUBATION): active; positive
mutagenic call (Test System: AMES SALMONELLA TYPHIMURIUM, Strain/Indicator: TA7003, Metabolic Activation: NONE, Method: PREINCUBATION): inactive; negative
mutagenic call (Test System: AMES SALMONELLA TYPHIMURIUM, Strain/Indicator: TA7003, Metabolic Activation: RAT LIVER S-9, 3-METHYLCHOLANTHRENE (15%), Method: PREINCUBATION): inactive; negative
mutagenic call (Test System: AMES SALMONELLA TYPHIMURIUM, Strain/Indicator: TA7004, Metabolic Activation: RAT LIVER S-9, 3-METHYLCHOLANTHRENE (15%), Method: PREINCUBATION): active; positive
mutagenic call (Test System: AMES SALMONELLA TYPHIMURIUM, Strain/Indicator: TA7005, Metabolic Activation: RAT LIVER S-9, 3-METHYLCHOLANTHRENE (15%), Method: PREINCUBATION): active; positive
mutagenic call (Test System: AMES SALMONELLA TYPHIMURIUM, Strain/Indicator: TA7006, Metabolic Activation: NONE, Method: PREINCUBATION): inactive; negative
mutagenic call (Test System: AMES SALMONELLA TYPHIMURIUM, Strain/Indicator: TA7006, Metabolic Activation: RAT LIVER S-9, 3-METHYLCHOLANTHRENE (15%), Method: PREINCUBATION): active; positive

CCCN(CCCO)N=O
mutagenic call (Test System: CHINESE HAMSTER V-79, Strain/Indicator: V-79/OUABAIN, Metabolic Activation: HAMSTER, HEPATOCYTES, Method: CELL-MEDIATED): inactive; negative

c1cnc2ccc3c(c2c1)CC[C@@H]1O[C@H]31
mutagenic call [6]: inactive; negative

O=[N+]([O-])c1ccc2c(c1)sc1ccccc12
mutagenic call [1]: active; positive
mutagenic call [2]: active; positive
mutagenic call (Test System: AMES SALMONELLA TYPHIMURIUM, Strain/Indicator: TA98(NR), Metabolic Activation: RAT LIVER S-9, 3-METHYLCHOLANTHRENE (10%), Method: PREINCUBATION): active; positive
mutagenic call [3]: active; positive

CN(Cc1ccc(C#N)cc1)N=O
mutagenic call (Test System: AMES SALMONELLA TYPHIMURIUM, Strain/Indicator: TA1535, Metabolic Activation: HAMSTER, LIVER, S-9, AROCLOR 1254, Method: STANDARD PLATE): active; positive
mutagenic call [8]: inactive; negative

Oc1ccc2c(O)c3ccccc3cc2c1O
mutagenic call [5]: inactive; negative
mutagenic call [6]: inactive; negative
mutagenic call [7]: inactive; negative
mutagenic call [8]: inactive; negative
mutagenic call [9]: inactive; negative
mutagenic call [10]: active; positive
mutagenic call [11]: inactive; negative
mutagenic call [12]: inactive; negative

C=CCC1OC(=O)C=CC1O (configuration not stated)
mutagenic call [4]: inactive; negative
mutagenic call [5]: inactive; negative
mutagenic call [6]: inactive; negative
mutagenic call [7]: inactive; negative

C=C1CC[C@H]2[C@@H](c3c(C)c(O)c4c(c31)C(=O)[C@@H](C)C4)C2(C)C
mutagenic call [4]: inactive; negative
mutagenic call (Test System: AMES SALMONELLA TYPHIMURIUM, Strain/Indicator: TA98, Method: STANDARD PLATE): inactive; negative
mutagenic call [6]: inactive; negative
mutagenic call (Test System: AMES SALMONELLA TYPHIMURIUM, Strain/Indicator: TA100, Method: STANDARD PLATE): inactive; negative
